Activity calls are given as the source filed them. The rule behind the calls is not given here.
Columns and labels:
[1] = target: Cholinesterase (Equus caballus, UniProt P81908)
Description: Inhibition of equine serum butyrylcholinesterase using butyrylthiocholine chloride as substrate preincubated for 15 mins followed by substrate addition by Ellman's method

[2] = target: Acetylcholinesterase (Electrophorus electricus, UniProt O42275)
Description: Inhibition of electric eel acetylcholinesterase using acetylthiocholine chloride as substrate preincubated for 15 mins followed by substrate addition by Ellman's method

[3] = target: Acetylcholinesterase (Homo sapiens, UniProt P22303); assay: Inhibition of human erythrocyte acetylcholinesterase using acetylthiocholine chloride as substrate preincubated for 15 mins followed by substrate addition by Ellman's method
[4] = GPx-like activity of the compound using GSH/1.2 mM H2O2 as substrate assessed as GSH-mediated H2O2 reduction at 80 uM at pH 7.5 measured for 10 secs by spectrophotometric analysis; assay type: physicochemical; details: pH 7.5, 10 s
[5] = GPx-like activity of the compound using 4 mM GSH/H2O2 as substrate assessed as GSH-mediated H2O2 reduction at 80 uM at pH 7.5 measured for 10 secs by spectrophotometric analysis; assay type: physicochemical; details: pH 7.5, 10 s
[6] = GPx-like activity of the compound using GSH/variable H2O2 as substrate by Lineweaver-burk plot analysis; assay type: physicochemical
[7] = GPx-like activity of the compound using GSH/1.6 mM H2O2 as substrate assessed as GSH-mediated H2O2 reduction at 80 uM at pH 7.5 measured for 10 secs by spectrophotometric analysis; assay type: physicochemical; details: pH 7.5, 10 s
[8] = GPx-like activity of the compound using 2 mM GSH/H2O2 as substrate assessed as GSH-mediated H2O2 reduction at 80 uM at pH 7.5 measured for 10 secs by spectrophotometric analysis; assay type: physicochemical; details: pH 7.5, 10 s
[9] = GPx-like activity of the compound using GSH/1 mM H2O2 as substrate assessed as GSH-mediated H2O2 reduction at 80 uM at pH 7.5 measured for 10 secs by spectrophotometric analysis; assay type: physicochemical; details: pH 7.5, 10 s
[10] = GPx-like activity of the compound using variable GSH/H2O2 as substrate assessed as catalytic efficiency by Lineweaver-burk plot analysis; assay type: physicochemical
[11] = GPx-like activity of the compound using GSH/0.8 mM H2O2 as substrate assessed as GSH-mediated H2O2 reduction at 80 uM at pH 7.5 measured for 10 secs by spectrophotometric analysis; assay type: physicochemical; details: pH 7.5, 10 s
[12] = Antioxidant activity assessed as H2O2 scavenging activity at 50 to 200 uM after 10 hrs by ferrous ion oxidation-xylenol orange assay; assay type: functional
[13] = GPx-like activity of the compound using variable GSH/H2O2 as substrate by Lineweaver-burk plot analysis; assay type: physicochemical
[14] = GPx-like activity of the compound using 3 mM GSH/H2O2 as substrate assessed as GSH-mediated H2O2 reduction at 80 uM at pH 7.5 measured for 10 secs by spectrophotometric analysis; assay type: physicochemical; details: pH 7.5, 10 s
[15] = GPx-like activity of the compound using GSH/1.4 mM H2O2 as substrate assessed as GSH-mediated H2O2 reduction at 80 uM at pH 7.5 measured for 10 secs by spectrophotometric analysis; assay type: physicochemical; details: pH 7.5, 10 s
[16] = GPx-like activity of the compound using 1 mM GSH/H2O2 as substrate assessed as GSH-mediated H2O2 reduction at 80 uM at pH 7.5 measured for 10 secs by spectrophotometric analysis; assay type: physicochemical; details: pH 7.5, 10 s
[17] = GPx-like activity of the compound using GSH/variable H2O2 as substrate assessed as catalytic efficiency by Lineweaver-burk plot analysis; assay type: physicochemical
[18] = GPx-like activity of the compound using 1.5 mM GSH/H2O2 as substrate assessed as GSH-mediated H2O2 reduction at 80 uM at pH 7.5 measured for 10 secs by spectrophotometric analysis; assay type: physicochemical; details: pH 7.5, 10 s

Chain of Acetylcholinesterase (Homo sapiens, UniProt P22303) (P22303 whole entry): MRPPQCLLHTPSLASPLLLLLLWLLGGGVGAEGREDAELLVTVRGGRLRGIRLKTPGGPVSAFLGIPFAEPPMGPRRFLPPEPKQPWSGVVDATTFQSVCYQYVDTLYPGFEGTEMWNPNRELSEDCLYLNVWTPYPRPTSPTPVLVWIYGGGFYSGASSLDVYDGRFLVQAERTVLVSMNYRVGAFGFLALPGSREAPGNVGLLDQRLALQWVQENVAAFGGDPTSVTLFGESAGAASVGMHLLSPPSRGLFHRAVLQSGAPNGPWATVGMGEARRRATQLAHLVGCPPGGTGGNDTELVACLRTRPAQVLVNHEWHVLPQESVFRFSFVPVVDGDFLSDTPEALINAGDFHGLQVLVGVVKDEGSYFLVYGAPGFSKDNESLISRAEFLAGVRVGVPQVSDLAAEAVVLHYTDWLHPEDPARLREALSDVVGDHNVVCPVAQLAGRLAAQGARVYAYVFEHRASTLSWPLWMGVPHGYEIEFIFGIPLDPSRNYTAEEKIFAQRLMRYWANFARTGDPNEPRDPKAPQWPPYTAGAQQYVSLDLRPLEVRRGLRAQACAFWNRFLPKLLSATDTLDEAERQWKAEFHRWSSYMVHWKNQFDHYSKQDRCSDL
Chain of Cholinesterase (P81908 whole entry): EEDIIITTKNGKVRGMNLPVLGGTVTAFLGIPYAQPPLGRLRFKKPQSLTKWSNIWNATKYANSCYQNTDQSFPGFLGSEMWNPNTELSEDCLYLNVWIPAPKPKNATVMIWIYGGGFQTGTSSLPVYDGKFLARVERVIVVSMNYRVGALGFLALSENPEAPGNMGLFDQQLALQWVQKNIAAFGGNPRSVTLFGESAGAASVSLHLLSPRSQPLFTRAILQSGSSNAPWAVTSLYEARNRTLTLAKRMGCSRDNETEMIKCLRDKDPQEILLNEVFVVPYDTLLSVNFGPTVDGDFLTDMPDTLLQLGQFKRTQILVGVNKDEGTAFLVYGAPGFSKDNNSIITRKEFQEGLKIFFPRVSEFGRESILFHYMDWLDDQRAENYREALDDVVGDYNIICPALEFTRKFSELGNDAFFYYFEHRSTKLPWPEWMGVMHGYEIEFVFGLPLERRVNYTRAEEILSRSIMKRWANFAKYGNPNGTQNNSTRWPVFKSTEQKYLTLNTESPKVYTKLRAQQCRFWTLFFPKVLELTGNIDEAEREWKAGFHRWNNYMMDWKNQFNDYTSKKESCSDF
Chain of Acetylcholinesterase (Electrophorus electricus, UniProt O42275) (O42275 whole entry): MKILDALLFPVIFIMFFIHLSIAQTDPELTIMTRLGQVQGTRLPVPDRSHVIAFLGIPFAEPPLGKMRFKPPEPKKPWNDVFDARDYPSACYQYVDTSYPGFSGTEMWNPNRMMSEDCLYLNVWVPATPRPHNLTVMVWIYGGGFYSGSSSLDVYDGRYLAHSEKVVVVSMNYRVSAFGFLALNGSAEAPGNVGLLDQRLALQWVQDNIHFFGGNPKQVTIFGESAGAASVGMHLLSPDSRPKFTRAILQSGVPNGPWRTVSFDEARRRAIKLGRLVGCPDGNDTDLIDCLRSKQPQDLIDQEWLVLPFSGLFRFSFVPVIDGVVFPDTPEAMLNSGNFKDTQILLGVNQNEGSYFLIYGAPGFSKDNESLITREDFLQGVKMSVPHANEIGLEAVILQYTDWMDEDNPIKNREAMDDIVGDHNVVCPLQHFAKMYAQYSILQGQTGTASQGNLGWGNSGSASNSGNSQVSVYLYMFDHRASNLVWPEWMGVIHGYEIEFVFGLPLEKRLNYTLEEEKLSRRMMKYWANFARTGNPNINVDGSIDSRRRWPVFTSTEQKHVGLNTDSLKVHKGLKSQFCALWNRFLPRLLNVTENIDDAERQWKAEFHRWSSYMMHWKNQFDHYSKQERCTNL

Compound | IC50 [1] [µM] | IC50 [2] [µM] | IC50 [3] [µM] | Activity [4] [µM/min] | Activity [5] [µM/min] | Kcat [6] [s⁻¹] | Vmax [6] [µM/min] | Activity [7] [µM/min] | Activity [8] [µM/min] | Activity [9] [µM/min] | Activity [10] [mM⁻¹ min⁻¹] | Activity [11] [µM/min] | Activity [12] | Kcat [13] [s⁻¹] | Vmax [13] [µM/min] | Activity [14] [µM/min] | Activity [15] [µM/min] | Activity [16] [µM/min] | Activity [17] [mM⁻¹ min⁻¹] | Activity [18] [µM/min]
COc1cc2[se]n(-c3ccc(CCN4CCCC4)cc3)c(=O)c2cc1OC | > 15 | 4.32 | 13.9 |  |  |  |  |  |  |  |  |  |  |  |  |  |  |  |  | 
O=c1c2ccccc2[se]n1-c1ccc(CN2CCCCC2)cc1 | 5.56 | 2.36 | 10.8 |  |  |  |  |  |  |  |  |  |  |  |  |  |  |  |  | 
COc1cc2[se]n(-c3ccc(CN4CCCCC4)cc3)c(=O)c2cc1OC | > 15 | 0.76 | 1.44 | 121.72 | 185.66 | 0.1812 | 869.57 | 150.53 | 147.84 | 109.44 | 1.63 | 81.43 | Active | 0.0643 | 308.64 | 166.44 | 132.29 | 88.35 | 1.45 | 130.27
COc1cc2[se]n(-c3ccc(CN(C)Cc4ccccc4)cc3)c(=O)c2cc1OC | 3.62 | 1.71 | > 15 |  |  |  |  |  |  |  |  |  |  |  |  |  |  |  |  | 
O=c1c2ccccc2[se]n1-c1ccc(CCN2CCCC2)cc1 | 6.38 | > 15 | > 15 |  |  |  |  |  |  |  |  |  |  |  |  |  |  |  |  | 
O=c1c2ccccc2[se]n1-c1ccccc1 [EBSELEN] | 10.6 | > 15 | > 15 | 107.82 | 183.19 | 0.0393 | 188.68 | 125.93 | 152.18 | 105.89 | 1.64 | 92.43 | Active | 0.0642 | 307.69 | 166.44 | 119.01 | 88.35 | 2.85 | 130.27
COc1cc2[se]n(-c3ccc(OCCCN4CCCCC4)cc3)c(=O)c2cc1OC | 5.8 | 4.5 | 5.15 |  |  |  |  |  |  |  |  |  |  |  |  |  |  |  |  | 
COc1cc2[se]n(-c3ccc(CN4CCCC4)cc3)c(=O)c2cc1OC | 13.4 | 1.06 | 4.31 |  |  |  |  |  |  |  |  |  |  |  |  |  |  |  |  | 
O=c1c2ccccc2[se]n1-c1ccc(OCCN2CCCCC2)cc1 | 1.97 | 5.66 | 10.9 |  |  |  |  |  |  |  |  |  |  |  |  |  |  |  |  | 
COc1cc2[se]n(-c3ccc(CCN4CCCCC4)cc3)c(=O)c2cc1OC | > 15 | 3.87 | 10.5 |  |  |  |  |  |  |  |  |  |  |  |  |  |  |  |  | 
COc1cc2[se]n(-c3ccc(OCCN4CCCCC4)cc3)c(=O)c2cc1OC | 9.69 | 0.46 | 0.45 | 98.87 | 164.86 | 0.066 | 316.46 | 122.64 | 126.72 | 76.93 | 1.4 | 53.36 | Active | 0.0577 | 276.24 | 150.13 | 109.83 | 77.43 | 0.74 | 110.89
COc1cc2[se]n(-c3ccc(OCCCCN4CCCCC4)cc3)c(=O)c2cc1OC | 5.72 | 4.32 | 3.41 |  |  |  |  |  |  |  |  |  |  |  |  |  |  |  |  | 

— ChEMBL document CHEMBL3112576, “Synthesis and biological evaluation of a new series of ebselen derivatives as glutathione peroxidase (GPx) mimics and cholinesterase inhibitors against Alzheimer's disease” (Bioorg Med Chem, 2014)
